Tests used:
Hepatotoxicity [1] = tested on: Hepatotoxicity;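 as to HepSE Combined Scores: combined hepatic side effect score as listed in the training data of the Drug Induced Liver Injury Prediction System (DILIps)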;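 as to HepSE cholecystitis: Cholecystitis-related hepatic side effect score drawn from the DILIps (drug-induced liver injury prediction) training data set; call rule not given here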;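 as to HepSE cirrhosis: cirrhosis hepatic side effect score taken from the DILIps (drug-induced liver injury prediction) training set; call rule not given here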;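 as to HepSE hepatitis: Hepatitis-related hepatic side effect score taken from the training data of DILIps, a prediction system for drug-induced liver injury; call rule not given here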;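 as to HepSE hepatomegaly: hepatic side effect score for hepatomegaly, taken from the training set of the DILIps drug-induced liver injury prediction system; call rule not given here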;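 as to HepSE liver function tests abnormal: hepatic side effect score taken from the DILIps (drug-induced liver injury prediction system) training data, here covering abnormal liver function test findings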
Hepatotoxicity [2] = tested on: Hepatotoxicity; remark: listed apart in the source;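 as to HepSE Combined Scores: combined hepatic side effect score as listed in the training data of the Drug Induced Liver Injury Prediction System (DILIps)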;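 as to HepSE cholecystitis: Cholecystitis-related hepatic side effect score drawn from the DILIps (drug-induced liver injury prediction) training data set; call rule not given here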;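 as to HepSE cirrhosis: cirrhosis hepatic side effect score taken from the DILIps (drug-induced liver injury prediction) training set; call rule not given here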;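 as to HepSE hepatitis: Hepatitis-related hepatic side effect score taken from the training data of DILIps, a prediction system for drug-induced liver injury; call rule not given here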;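 as to HepSE hepatomegaly: hepatic side effect score for hepatomegaly, taken from the training set of the DILIps drug-induced liver injury prediction system; call rule not given here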;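 as to HepSE liver function tests abnormal: hepatic side effect score taken from the DILIps (drug-induced liver injury prediction system) training data, here covering abnormal liver function test findings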
Hepatotoxicity [3] = tested on: Hepatotoxicity; remark: listed apart in the source;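 as to HepSE Combined Scores: combined hepatic side effect score as listed in the training data of the Drug Induced Liver Injury Prediction System (DILIps)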;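 as to HepSE cholecystitis: Cholecystitis-related hepatic side effect score drawn from the DILIps (drug-induced liver injury prediction) training data set; call rule not given here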;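 as to HepSE cirrhosis: cirrhosis hepatic side effect score taken from the DILIps (drug-induced liver injury prediction) training set; call rule not given here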;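 as to HepSE hepatitis: Hepatitis-related hepatic side effect score taken from the training data of DILIps, a prediction system for drug-induced liver injury; call rule not given here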;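 as to HepSE hepatomegaly: hepatic side effect score for hepatomegaly, taken from the training set of the DILIps drug-induced liver injury prediction system; call rule not given here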;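 as to HepSE liver function tests abnormal: hepatic side effect score taken from the DILIps (drug-induced liver injury prediction system) training data, here covering abnormal liver function test findings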
Hepatotoxicity [4] = tested on: Hepatotoxicity; remark: listed apart in the source;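 as to HepSE Combined Scores: combined hepatic side effect score as listed in the training data of the Drug Induced Liver Injury Prediction System (DILIps)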;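 as to HepSE cirrhosis: cirrhosis hepatic side effect score taken from the DILIps (drug-induced liver injury prediction) training set; call rule not given here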;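 as to HepSE hepatitis: Hepatitis-related hepatic side effect score taken from the training data of DILIps, a prediction system for drug-induced liver injury; call rule not given here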;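 as to HepSE hepatomegaly: hepatic side effect score for hepatomegaly, taken from the training set of the DILIps drug-induced liver injury prediction system; call rule not given here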;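 as to HepSE liver function tests abnormal: hepatic side effect score taken from the DILIps (drug-induced liver injury prediction system) training data, here covering abnormal liver function test findings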
Hepatotoxicity [5] = tested on: Hepatotoxicity; remark: listed apart in the source
Hepatotoxicity [6] = tested on: Hepatotoxicity; remark: listed apart in the source
Hepatotoxicity [7] = tested on: Hepatotoxicity; remark: listed apart in the source
Hepatotoxicity [8] = tested on: Hepatotoxicity; remark: listed apart in the source
Hepatotoxicity [9] = tested on: Hepatotoxicity; remark: listed apart in the source
Hepatotoxicity [10] = tested on: Hepatotoxicity; remark: listed apart in the source
Hepatotoxicity [11] = tested on: Hepatotoxicity; remark: listed apart in the source
Hepatotoxicity [12] = tested on: Hepatotoxicity; remark: listed apart in the source
Hepatotoxicity [13] = tested on: Hepatotoxicity; remark: listed apart in the source
Hepatotoxicity [14] = tested on: Hepatotoxicity; remark: listed apart in the source

Row | SMILES | HepSE_liver function tests abnormal (Hepatotoxicity [1]) | HepSE_hepatitis (Hepatotoxicity [2]) | HepSE_hepatomegaly (Hepatotoxicity [3]) | HepSE_Combined Scores (Hepatotoxicity [4]) | HepSE_cirrhosis (Hepatotoxicity [5]) | HepSE_cholecystitis (Hepatotoxicity [6]) | HepSE_hepatic failure (Hepatotoxicity [7]) | HepSE_jaundice (Hepatotoxicity [8]) | HepSE_hepatic necrosis (Hepatotoxicity [9]) | HepSE_cholelithiasis (Hepatotoxicity [10]) | HepSE_bilirubinemia (Hepatotoxicity [11]) | HepSE_liver fatty (Hepatotoxicity [12]) | HepSE_elevated liver function tests (Hepatotoxicity [13]) | HepSE_liver disease (Hepatotoxicity [14]) | also measured
1 | O=S(=O)([O-])CCS.[Na+] [MESNA] | 0 | 0 | 0 | 0 | 0 | 0 | 0 | 0 | 0 | 0 | 0 | 0 | 0 | 0 | –
2 | CN1CCCCC1CCN1c2ccccc2Sc2ccc([S+](C)[O-])cc21 (configuration not stated) [MESORIDAZINE] | – | – | – | – | – | – | – | – | – | – | – | – | – | – | HepSE_liver function tests abnormal (Hepatotoxicity [1]; Liver): 0; HepSE_hepatitis (Hepatotoxicity [2]; Liver): 0; HepSE_hepatomegaly (Hepatotoxicity [3]; Liver): 0; HepSE_Combined Scores (Hepatotoxicity [4]; Liver): 1; HepSE_cirrhosis (Hepatotoxicity [5]; Liver): 0; HepSE_cholecystitis (Hepatotoxicity [6]; Liver): 0; HepSE_hepatic failure (Hepatotoxicity [7]; Liver): 0; HepSE_jaundice (Hepatotoxicity [8]; Liver): 1; HepSE_hepatic necrosis (Hepatotoxicity [9]; Liver): 0; HepSE_cholelithiasis (Hepatotoxicity [10]; Liver): 0; HepSE_bilirubinemia (Hepatotoxicity [11]; Liver): 0; HepSE_liver fatty (Hepatotoxicity [12]; Liver): 0; HepSE_elevated liver function tests (Hepatotoxicity [13]; Liver): 0; HepSE_liver disease (Hepatotoxicity [14]; Liver): 0
3 | CC(C)NCC(O)c1cc(O)cc(O)c1 (configuration not stated) [METAPROTERENOL] | 0 | 0 | 0 | 0 | 0 | 0 | 0 | 0 | 0 | 0 | 0 | 0 | 0 | 0 | –
4 | CN(C)C(=N)N=C(N)N [METFORMIN] | – | – | – | – | – | – | – | – | – | – | – | – | – | – | HepSE_liver function tests abnormal (Hepatotoxicity [1]; Liver): 1; HepSE_hepatitis (Hepatotoxicity [2]; Liver): 1; HepSE_hepatomegaly (Hepatotoxicity [3]; Liver): 0; HepSE_Combined Scores (Hepatotoxicity [4]; Liver): 2; HepSE_cirrhosis (Hepatotoxicity [5]; Liver): 0; HepSE_cholecystitis (Hepatotoxicity [6]; Liver): 0; HepSE_hepatic failure (Hepatotoxicity [7]; Liver): 0; HepSE_jaundice (Hepatotoxicity [8]; Liver): 0; HepSE_hepatic necrosis (Hepatotoxicity [9]; Liver): 0; HepSE_cholelithiasis (Hepatotoxicity [10]; Liver): 0; HepSE_bilirubinemia (Hepatotoxicity [11]; Liver): 0; HepSE_liver fatty (Hepatotoxicity [12]; Liver): 0; HepSE_elevated liver function tests (Hepatotoxicity [13]; Liver): 0; HepSE_liver disease (Hepatotoxicity [14]; Liver): 0
5 | CCC(=O)C(CC(C)N(C)C)(c1ccccc1)c1ccccc1 (configuration not stated) [METHADONE] | 0 | 0 | 0 | 0 | 0 | 0 | 0 | 0 | 0 | 0 | 0 | 0 | 0 | 0 | –
6 | CN[C@@H](C)Cc1ccccc1 [METHAMPHETAMINE] | 0 | 0 | 0 | 0 | 0 | 0 | 0 | 0 | 0 | 0 | 0 | 0 | 0 | 0 | –
7 | CC(=O)/N=c1/sc(S(N)(=O)=O)nn1C [METHAZOLAMIDE] | 0 | 0 | 0 | 1 | 0 | 0 | 0 | 0 | 1 | 0 | 0 | 0 | 0 | 0 | –
8 | C1N2CN3CN1CN(C2)C3 [METHENAMINE] | 0 | 0 | 0 | 0 | 0 | 0 | 0 | 0 | 0 | 0 | 0 | 0 | 0 | 0 | –
9 | COc1ccccc1OCC(O)COC(N)=O (configuration not stated) [METHOCARBAMOL] | 0 | 0 | 0 | 1 | 0 | 0 | 0 | 1 | 0 | 0 | 0 | 0 | 0 | 0 | –
10 | C=CCC1(C(C)C#CCC)C(=O)N=C(O)N(C)C1=O (configuration not stated) [METHOHEXITAL] | 1 | 0 | 0 | 1 | 0 | 0 | 0 | 0 | 0 | 0 | 0 | 0 | 0 | 0 | –
11 | CN(Cc1cnc2nc(N)nc(N)c2n1)c1ccc(C(=O)N[C@@H](CCC(=O)O)C(=O)O)cc1 [METHOTREXATE] | 0 | 1 | 0 | 5 | 1 | 0 | 1 | 0 | 0 | 0 | 1 | 0 | 1 | 0 | –
12 | COc1c2occc2cc2ccc(=O)oc12 [METHOXSALEN] | 0 | 0 | 0 | 0 | 0 | 0 | 0 | 0 | 0 | 0 | 0 | 0 | 0 | 0 | –
13 | CN1C(=O)CC(C)(c2ccccc2)C1=O (configuration not stated) [METHSUXIMIDE] | 0 | 0 | 0 | 0 | 0 | 0 | 0 | 0 | 0 | 0 | 0 | 0 | 0 | 0 | –
14 | CN1C(CCl)Nc2cc(Cl)c(S(N)(=O)=O)cc2S1(=O)=O (configuration not stated) [METHYCLOTHIAZIDE] | 0 | 0 | 0 | 1 | 0 | 0 | 0 | 1 | 0 | 0 | 0 | 0 | 0 | 0 | –
15 | COC(=O)CCC(=O)CN [METHYL AMINOLEVULINATE] | 0 | 0 | 0 | 0 | 0 | 0 | 0 | 0 | 0 | 0 | 0 | 0 | 0 | 0 | –
16 | C[C@](N)(Cc1ccc(O)c(O)c1)C(=O)O [METHYLDOPA] | 1 | 1 | 0 | 3 | 0 | 0 | 0 | 1 | 0 | 0 | 0 | 0 | 0 | 0 | –
17 | CC[C@@H](CO)NC(=O)[C@@H]1C=C2c3cccc4[nH]cc(c34)C[C@H]2N(C)C1 [METHYLERGONOVINE] | 0 | 0 | 0 | 0 | 0 | 0 | 0 | 0 | 0 | 0 | 0 | 0 | 0 | 0 | –
18 | COC(=O)C(c1ccccc1)C1CCCCN1 (configuration not stated) [METHYLPHENIDATE] | 1 | 0 | 0 | 1 | 0 | 0 | 0 | 0 | 0 | 0 | 0 | 0 | 0 | 0 | –

— ChEMBL document CHEMBL1909294, “Translating clinical findings into knowledge in drug safety evaluation--drug induced liver injury prediction system (DILIps)” (PLoS Comput Biol, 2011)
